ATPase stimulation data for 1 compound are collected here from PMC9472360, “Adagrasib, a KRAS G12C inhibitor, reverses the multidrug resistance mediated by ABCB1 in vitro and in vivo” (Cell Communication and Signaling : CCS, 2022).

The structures appear in SMILES notation.

In the series the target is T1, ABCB1 (P-glycoprotein/P-gp/MDR1) (Homo sapiens, UniProt P08183).
T1 construct: full-length ABCB1 overexpressed in High Five insect cells; crude membranes
In words: vanadate-sensitive ATPase assay, inorganic phosphate release, ABCB1 membranes. Format: biochemical. The note with it: High Five membranes 100 µg/mL, 12 mM Mg-ATP, 37 °C, 0.01-5 µM.

T1 sequence (P08183 whole entry): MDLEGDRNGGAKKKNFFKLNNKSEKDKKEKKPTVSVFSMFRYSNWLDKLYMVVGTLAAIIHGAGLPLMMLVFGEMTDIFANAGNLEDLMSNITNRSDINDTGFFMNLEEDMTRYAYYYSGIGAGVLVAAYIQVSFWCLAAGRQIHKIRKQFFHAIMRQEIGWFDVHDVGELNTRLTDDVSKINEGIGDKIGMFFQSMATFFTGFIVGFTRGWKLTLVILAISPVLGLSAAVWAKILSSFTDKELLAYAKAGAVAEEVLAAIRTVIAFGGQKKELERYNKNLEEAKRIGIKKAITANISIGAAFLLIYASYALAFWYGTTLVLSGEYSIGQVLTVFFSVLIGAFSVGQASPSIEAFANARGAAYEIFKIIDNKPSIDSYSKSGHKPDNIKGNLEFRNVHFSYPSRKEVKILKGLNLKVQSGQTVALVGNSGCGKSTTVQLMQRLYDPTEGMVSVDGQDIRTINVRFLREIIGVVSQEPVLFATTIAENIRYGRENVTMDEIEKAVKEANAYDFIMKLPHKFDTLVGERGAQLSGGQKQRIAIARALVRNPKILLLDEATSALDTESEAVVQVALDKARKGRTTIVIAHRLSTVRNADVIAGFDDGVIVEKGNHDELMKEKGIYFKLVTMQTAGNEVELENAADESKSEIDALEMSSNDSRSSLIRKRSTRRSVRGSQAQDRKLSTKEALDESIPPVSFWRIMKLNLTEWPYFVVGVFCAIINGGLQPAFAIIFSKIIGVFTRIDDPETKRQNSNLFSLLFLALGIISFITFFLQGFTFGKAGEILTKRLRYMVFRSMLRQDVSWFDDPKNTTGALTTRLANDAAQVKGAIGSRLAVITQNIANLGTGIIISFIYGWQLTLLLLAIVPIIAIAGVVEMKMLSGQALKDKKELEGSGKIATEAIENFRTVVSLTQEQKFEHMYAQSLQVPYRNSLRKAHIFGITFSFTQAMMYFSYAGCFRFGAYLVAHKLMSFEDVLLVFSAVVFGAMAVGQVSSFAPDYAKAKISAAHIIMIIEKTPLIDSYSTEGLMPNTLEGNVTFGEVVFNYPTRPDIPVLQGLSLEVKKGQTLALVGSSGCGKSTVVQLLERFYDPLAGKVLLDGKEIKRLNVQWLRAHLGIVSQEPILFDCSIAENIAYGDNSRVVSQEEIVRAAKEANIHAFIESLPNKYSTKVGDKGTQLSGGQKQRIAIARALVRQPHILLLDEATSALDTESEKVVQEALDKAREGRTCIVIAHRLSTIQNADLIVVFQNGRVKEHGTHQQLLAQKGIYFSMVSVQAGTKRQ

As for `C=C(F)C(=O)N1CCN(c2nc(OC[C@@H]3CCCN3C)nc3c2CCN(c2cccc4cccc(Cl)c24)C3)C[C@@H]1CC#N` [MRTX849], the ATPase stimulation result is listed as “MRTX849- stimulated activity of ABCB1 ATPase was dose-dependent”.
